In brackets after ≈: the same amount, converted by molar mass. Activity calls are given as the source filed them. No cut-off for these calls is given here. Bridge positions count the residues as written; N and C are the ends. Square brackets hold non-standard residues; d marks the D form. Peptide text beside a SMILES is read from it. * marks the point of attachment. Heptanoyl(6-Me) = CC(C)CCCCC(=O)*; Dab = NCC[C@H](N)C(=O)O; Dap = NC[C@H](N)C(=O)O
How the values were obtained:
Escherichia coli [1] = test: Antibacterial activity against Escherichia coli ATCC BAA-2523 assessed as inhibition of bacterial growth incubated for 16 to 20 hrs by CLSI protocol based broth microdilution method; type: functional; conditions: time 16-20 hrs
Klebsiella pneumoniae [2] = test: Antibacterial activity against carbapenem-resistant Klebsiella pneumoniae clinical isolate KPN+19-15 assessed as inhibition of bacterial growth incubated for 16 to 20 hrs by CLSI protocol based broth microdilution method; type: functional; conditions: time 16-20 hrs
Klebsiella pneumoniae [3] = test: Antibacterial activity against carbapenem-resistant Klebsiella pneumoniae ATCC BAA-1705 assessed as inhibition of bacterial growth incubated for 16 to 20 hrs by CLSI protocol based broth microdilution method; type: functional; conditions: time 16-20 hrs
Acinetobacter baumannii [4] = test: Antibacterial activity against Acinetobacter baumannii NCTC 13304 (OXA-27) assessed as inhibition of bacterial growth incubated for 16 to 20 hrs by CLSI protocol based broth microdilution method; type: functional; conditions: time 16-20 hrs
[5] = Renal cytotoxicity against HK-2 cells incubated for 72 hrs by CCK8 assay; type: toxicity, cell-based; conditions: human
Escherichia coli [6] = test: Antibacterial activity against carbapenem-resistant Escherichia coli clinical isolate 231016w014 assessed as inhibition of bacterial growth incubated for 24 hrs by CLSI protocol based broth microdilution method; type: functional
Escherichia coli [7] = test: Antibacterial activity against carbapenem-resistant Escherichia coli clinical isolate 231112E006B assessed as inhibition of bacterial growth incubated for 24 hrs by CLSI protocol based broth microdilution method; type: functional
Escherichia coli [8] = test: Antibacterial activity against carbapenem-resistant Escherichia coli clinical isolate 231109W005 assessed as inhibition of bacterial growth incubated for 24 hrs by CLSI protocol based broth microdilution method; type: functional
Klebsiella pneumoniae [9] = test: Antibacterial activity against carbapenem-resistant Klebsiella pneumoniae clinical isolate ets26 assessed as inhibition of bacterial growth incubated for 24 hrs by CLSI protocol based broth microdilution method; type: functional
Klebsiella pneumoniae [10] = test: Antibacterial activity against carbapenem-resistant Klebsiella pneumoniae clinical isolate ets74 assessed as inhibition of bacterial growth incubated for 24 hrs by CLSI protocol based broth microdilution method; type: functional
Klebsiella pneumoniae [11] = test: Antibacterial activity against carbapenem-resistant Klebsiella pneumoniae clinical isolate ets77 assessed as inhibition of bacterial growth incubated for 24 hrs by CLSI protocol based broth microdilution method; type: functional
Klebsiella pneumoniae [12] = test: Antibacterial activity against carbapenem-resistant Klebsiella pneumoniae clinical isolate ets80 assessed as inhibition of bacterial growth incubated for 24 hrs by CLSI protocol based broth microdilution method; type: functional
Pseudomonas aeruginosa [13] = test: Antibacterial activity against carbapenem-resistant Pseudomonas aeruginosa clinical isolate ets6 assessed as inhibition of bacterial growth incubated for 24 hrs by CLSI protocol based broth microdilution method; type: functional
Pseudomonas aeruginosa [14] = test: Antibacterial activity against carbapenem-resistant Pseudomonas aeruginosa clinical isolate ets22 assessed as inhibition of bacterial growth incubated for 24 hrs by CLSI protocol based broth microdilution method; type: functional
Pseudomonas aeruginosa [15] = test: Antibacterial activity against carbapenem-resistant Pseudomonas aeruginosa clinical isolate ets49 assessed as inhibition of bacterial growth incubated for 24 hrs by CLSI protocol based broth microdilution method; type: functional
Pseudomonas aeruginosa [16] = test: Antibacterial activity against carbapenem-resistant Pseudomonas aeruginosa clinical isolate ets55 assessed as inhibition of bacterial growth incubated for 24 hrs by CLSI protocol based broth microdilution method; type: functional
Pseudomonas aeruginosa [17] = test: Antibacterial activity against carbapenem-resistant Pseudomonas aeruginosa clinical isolate ets83 assessed as inhibition of bacterial growth incubated for 24 hrs by CLSI protocol based broth microdilution method; type: functional
Acinetobacter baumannii [18] = test: Antibacterial activity against carbapenem-resistant Acinetobacter baumannii clinical isolate ets30 assessed as inhibition of bacterial growth incubated for 24 hrs by CLSI protocol based broth microdilution method; type: functional
Acinetobacter baumannii [19] = test: Antibacterial activity against carbapenem-resistant Acinetobacter baumannii clinical isolate ets123 assessed as inhibition of bacterial growth incubated for 24 hrs by CLSI protocol based broth microdilution method; type: functional
Acinetobacter baumannii [20] = test: Antibacterial activity against carbapenem-resistant Acinetobacter baumannii clinical isolate ets171 assessed as inhibition of bacterial growth incubated for 24 hrs by CLSI protocol based broth microdilution method; type: functional
Acinetobacter baumannii [21] = test: Antibacterial activity against carbapenem-resistant Acinetobacter baumannii clinical isolate ets178 assessed as inhibition of bacterial growth incubated for 24 hrs by CLSI protocol based broth microdilution method; type: functional
Pseudomonas aeruginosa [22] = test: Antibacterial activity against Pseudomonas aeruginosa ATCC 27853 assessed as decrease in bacterial concentration at 0.5 to 2 times of MIC measured after 2 hrs by time-kill kinetics assay; type: functional, organism-based
[23] = Nephrotoxicity against Sprague-Dawley rat assessed as increase in BUN level at 4 mg/kg, iv administered for 7 days by fully automated biochemistry analyzer XR200PLUS; type: toxicity, organism-based; conditions: in vivo, 168 h, time 7 day
[24] = Nephrotoxicity against Sprague-Dawley rat assessed as increase in CRE level at 4 mg/kg, iv administered for 7 days by fully automated biochemistry analyzer XR200PLUS; type: toxicity, organism-based; conditions: in vivo, 168 h, time 7 day
[25] = C0 in male Sprague-Dawley rat at 3 mg/kg, iv measured after 24 hrs by LC-MS/MS analysis; type: ADME, organism-based; conditions: in vivo
[26] = AUC (0 to infinity) in male Sprague-Dawley rat at 3 mg/kg, iv measured after 24 hrs by LC-MS/MS analysis; type: ADME, organism-based; conditions: in vivo
[27] = Clearance in male Sprague-Dawley rat at 3 mg/kg, iv measured after 24 hrs by LC-MS/MS analysis; type: ADME, organism-based; conditions: in vivo
Klebsiella pneumoniae [28] = test: Antibacterial activity against carbapenem-resistant Klebsiella pneumoniae ATCC BAA-1705 infected in ICR mouse model administered intravenously with compound at 1 and 6 hrs post-infection and measured after 7 days; type: functional; conditions: ATCC BAA-1705, 168 h, route iv, time 7 day
Klebsiella pneumoniae [29] = test: Antibacterial activity against carbapenem-resistant Klebsiella pneumoniae clinical isolate KPN+19-15 infected in ICR mouse model administered intravenously with compound at 1 and 6 hrs post-infection and measured after 7 days; type: functional; conditions: 168 h, route iv, time 7 day
Pseudomonas aeruginosa [30] = test: Antibacterial activity against Pseudomonas aeruginosa ATCC 27853 infected in ICR mouse model administered intravenously with compound at 1 and 6 hrs post-infection and measured after 7 days; type: functional; conditions: ATCC 27853, 168 h, route iv, time 7 day
Pseudomonas aeruginosa [31] = test: Antibacterial activity against Pseudomonas aeruginosa ATCC 27853 infected in ICR mouse model infected in ICR mouse model assessed as survival rate at 10 mg/kg, iv administered at 1 and 6 hrs post-infection and measured after 7 days relative to control; type: functional; conditions: ATCC 27853, 168 h, time 7 day
Pseudomonas aeruginosa [32] = test: Potentiation of rifampicin induced antibacterial activity against Pseudomonas aeruginosa ATCC 27853 assessed as rifampicin MIC at 0.008 microg/ml incubated 24 hrs by cation adjusted Mueller-Hinton broth based method; type: functional; conditions: dose 0.008 µg/ml
Pseudomonas aeruginosa [33] = test: Potentiation of rifampicin induced antibacterial activity against Pseudomonas aeruginosa ATCC 27853 assessed as rifampicin MIC at 0.03 microg/ml incubated 24 hrs by cation adjusted Mueller-Hinton broth based method; type: functional; conditions: dose 0.03 µg/ml
Pseudomonas aeruginosa [34] = test: Potentiation of rifampicin induced antibacterial activity against Pseudomonas aeruginosa ATCC 27853 assessed as rifampicin MIC at 0.06 microg/ml incubated 24 hrs by cation adjusted Mueller-Hinton broth based method; type: functional; conditions: dose 0.06 µg/ml
Cell membrane = test: Disruption of cell membrane integrity in Pseudomonas aeruginosa ATCC 27853 assessed as morphological changes at 16 microg/ml incubated for 2 hrs by scanning electron microscopic analysis; conditions: dose 16.0 µg/ml

CC(C)CCCCC(=O)N[C@@H](CCN)C(=O)N[C@H](C(=O)N[C@@H](CN)C(=O)N[C@H]1CCNC(=O)[C@H]([C@@H](C)O)NC(=O)[C@H](CCN)NC(=O)[C@H](CCN)NC(=O)[C@H]([C@@H](C)O)NC(=O)[C@@H](Cc2ccccc2)NC(=O)[C@H](CCN)NC1=O)[C@@H](C)O ({Heptanoyl(6-Me)}-[Dab]T[Dap][Dab][Dab][dF]T[Dab][Dab]T; lactam 4-C)
MIC (Escherichia coli [1]): ≤ 0.03 µg/mL
MIC (Klebsiella pneumoniae [2]): ≤ 0.03 µg/mL
MIC (Klebsiella pneumoniae [3]): ≤ 0.03 µg/mL
MIC (Acinetobacter baumannii [4]): ≤ 0.03 µg/mL
IC50 at 72 h [5]: > 500 µg/mL
MIC (Escherichia coli [6]): < 0.06 µg/mL
MIC (Escherichia coli [7]): < 0.06 µg/mL
MIC (Escherichia coli [8]): < 0.06 µg/mL
MIC (Klebsiella pneumoniae [9]): 0.5 µg/mL (≈ 0.43 µM)
MIC (Klebsiella pneumoniae [10]): 0.5 µg/mL (≈ 0.43 µM)
MIC (Klebsiella pneumoniae [11]): 0.5 µg/mL (≈ 0.43 µM)
MIC (Klebsiella pneumoniae [12]): 0.25 µg/mL (≈ 0.215 µM)
MIC (Pseudomonas aeruginosa [13]): 1 µg/mL (≈ 0.86 µM)
MIC (Pseudomonas aeruginosa [14]): 2 µg/mL (≈ 1.72 µM)
MIC (Pseudomonas aeruginosa [15]): 0.06 µg/mL (≈ 0.0516 µM)
MIC (Pseudomonas aeruginosa [16]): 1 µg/mL (≈ 0.86 µM)
MIC (Pseudomonas aeruginosa [17]): 0.5 µg/mL (≈ 0.43 µM)
MIC (Acinetobacter baumannii [18]): < 0.06 µg/mL
MIC (Acinetobacter baumannii [19]): 0.5 µg/mL (≈ 0.43 µM)
MIC (Acinetobacter baumannii [20]): 0.5 µg/mL (≈ 0.43 µM)
MIC (Acinetobacter baumannii [21]): 0.5 µg/mL (≈ 0.43 µM)
Activity (Pseudomonas aeruginosa [22]): inactive
Activity [23]: Non-toxic
Activity [24]: Non-toxic
C0 at 24 h [25]: 9810 ng/mL
AUC(0-inf) [26]: 8280 ng·h/mL
clearance [27]: 4.16 mL/min/kg
ED50 (Klebsiella pneumoniae [28]): 0.32 mg/kg
ED50 (Klebsiella pneumoniae [29]): 0.38 mg/kg
ED50 (Pseudomonas aeruginosa [30]): 6.38 mg/kg
survival at 10 mg/kg (Pseudomonas aeruginosa [31]): 100%
MIC (Pseudomonas aeruginosa [32]): 32 µg/mL
MIC (Pseudomonas aeruginosa [33]): 16 µg/mL
MIC (Pseudomonas aeruginosa [34]): 0.25 µg/mL
Activity (Cell membrane): Active
